Consider six compounds from ChEMBL document CHEMBL3785079, “Structure-Activity Study of Bioisosteric Trifluoromethyl and Pentafluorosulfanyl Indole Inhibitors of the AAA ATPase p97” (ACS Med Chem Lett, 2015).

Sequence of Transitional endoplasmic reticulum ATPase (P55072 whole entry): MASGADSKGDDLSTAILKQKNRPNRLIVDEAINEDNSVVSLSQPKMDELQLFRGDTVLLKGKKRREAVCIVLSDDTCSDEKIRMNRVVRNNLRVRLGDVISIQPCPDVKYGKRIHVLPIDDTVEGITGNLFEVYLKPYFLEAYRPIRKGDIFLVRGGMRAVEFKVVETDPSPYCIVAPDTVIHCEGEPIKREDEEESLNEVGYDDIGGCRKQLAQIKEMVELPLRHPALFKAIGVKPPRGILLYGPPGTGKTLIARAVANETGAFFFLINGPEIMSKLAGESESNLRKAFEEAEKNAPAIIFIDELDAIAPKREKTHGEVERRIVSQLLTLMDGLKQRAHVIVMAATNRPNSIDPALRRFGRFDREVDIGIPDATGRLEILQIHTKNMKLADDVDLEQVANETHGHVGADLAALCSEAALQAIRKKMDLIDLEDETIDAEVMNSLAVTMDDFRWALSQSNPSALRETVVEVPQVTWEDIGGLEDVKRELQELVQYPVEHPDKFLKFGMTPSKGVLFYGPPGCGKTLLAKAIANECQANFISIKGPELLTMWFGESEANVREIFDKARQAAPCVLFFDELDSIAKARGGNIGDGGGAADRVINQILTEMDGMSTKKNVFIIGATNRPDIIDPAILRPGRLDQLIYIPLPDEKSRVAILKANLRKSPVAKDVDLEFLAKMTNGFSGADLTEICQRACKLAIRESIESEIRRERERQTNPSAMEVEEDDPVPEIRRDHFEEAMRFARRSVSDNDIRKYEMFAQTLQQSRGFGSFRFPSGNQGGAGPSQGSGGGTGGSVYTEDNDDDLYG

This experiment concerns the target Transitional endoplasmic reticulum ATPase (Homo sapiens, UniProt P55072). Kind of experiment: Inhibition of wild type human AAA ATPase p97 expressed in Escherichia coli measured by ADPGlo assay in presence of 100 uM ATP.
For the compound `Cc1ccc2[nH]c(-c3cccc(N4CCC(NCCN5CCN(C(C)C)CC5)CC4)c3)cc2c1`, the IC50 (commonly the concentration needed to halve the response being measured) is 0.24 µM.

For the compound `CC(C)N1CCN(CCNC2CCN(c3cccc(-c4cc5cc(OC(F)(F)F)ccc5[nH]4)c3)CC2)CC1`, the IC50 worked out at 3.8 µM.

Consider `CC(C)N1CCN(CCNC2CCN(c3cccc(-c4cc5cc(S(F)(F)(F)(F)F)ccc5[nH]4)c3)CC2)CC1`, for which the IC50 is 21.5 µM.

With `CC(C)N1CCN(CCNC2CCN(c3cccc(-c4cc5cc(C(F)(F)F)ccc5[nH]4)c3)CC2)CC1`, the IC50 came to 4.7 µM.

`CC(C)N1CCN(CCNC2CCN(c3cccc(-c4cc5cc([N+](=O)[O-])ccc5[nH]4)c3)CC2)CC1`: the IC50 was determined as 0.05 µM.

Consider `COc1ccc2[nH]c(-c3cccc(N4CCC(NCCN5CCN(C(C)C)CC5)CC4)c3)cc2c1`, for which the concentration for half-maximal inhibition (IC50) was found to be 0.71 µM.
